Measurements reported in US20240373849A1, “INSECT NEUROPEPTIDE ANALOGUES” (THE UNIVERSITY COURT OF THE UNIVERSITY OF GLASGOW, priority 2020, published 2024).
Values joined by “and” are separate entries in the source; they are usually repeats but may differ in a detail not shown here. Equal entries are not always repeated. Where two headings read alike, the source gives them in different places. Square brackets hold non-standard residues; d marks the D form. * marks the point of attachment. Guanidyl = -C(=N+Me2)NMe2 on the N-terminal amine (tetramethylguanidyl cap), CN(C)C(=[N+](C)C)*; NMeL = CN[C@@H](CC(C)C)C(=O)O; NMeV = CN[C@H](C(=O)O)C(C)C; NMeA = CN[C@@H](C)C(=O)O; Aib = CC(C)(N)C(=O)O

Legend:
[1] = molecular target: T1, CapaR (Drosophila melanogaster, UniProt Q8ITC7); assay: Measurement of intracellular Ca2+ in S2 cells transfected with CapaR (agonist response); format: cell-based; details: 10^−7 M; activity normalised to that of native Capa2 (designated 100%)
T1 construct: transiently transfected with the apoaequorin ORF; expressed in transfected cells; host or cells: Drosophila melanogaster S2 cells, transient transfection, expression induced with CuSO4
T1 sequence (Q8ITC7 1-477): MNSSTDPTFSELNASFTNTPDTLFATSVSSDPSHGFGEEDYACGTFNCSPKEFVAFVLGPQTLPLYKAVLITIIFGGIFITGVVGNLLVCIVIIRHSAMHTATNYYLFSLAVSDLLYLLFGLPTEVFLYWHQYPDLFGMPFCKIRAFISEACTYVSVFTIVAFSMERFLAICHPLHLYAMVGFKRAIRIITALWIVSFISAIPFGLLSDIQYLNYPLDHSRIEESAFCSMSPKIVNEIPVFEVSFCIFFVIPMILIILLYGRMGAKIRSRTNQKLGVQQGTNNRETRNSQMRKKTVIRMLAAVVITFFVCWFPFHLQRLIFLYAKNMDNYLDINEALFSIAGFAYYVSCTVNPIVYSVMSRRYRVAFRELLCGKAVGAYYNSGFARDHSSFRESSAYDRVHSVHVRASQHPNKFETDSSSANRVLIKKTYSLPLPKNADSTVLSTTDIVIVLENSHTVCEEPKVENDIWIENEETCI
Protocol: Drosophila melanogaster S2 cells, cultured under standard conditions (1) were transiently transfected with the apoaequorin ORF (Radford J C, Davies S A, Dow J A. Systematic G-protein-coupled receptor analysis in Drosophila melanogaster identifies a leucokinin receptor with novel roles. J Biol Chem. 2002; 277:38810-38817) and a receptor ORF construct, and expression induced using CuSO4. Transfected S2 cells were harvested and incubated with 2.5 μM coelenterazine in the dark at RT for 1-2 h as described (ibid). 25,000 cells were then placed in 135 μl Schneider's medium supplemented with 10% FCS in a well of a white polystyrene 96-well plate (Berthold Technologies). Bioluminescence recordings were carried out using a Mithras LB940 automated 96-well plate reader (Berthold Technologies) and MikroWin software. 15 μl of each of different peptides were applied to final concentrations as required.
Peptides were tested at 10^−7M.
At the end of each recording samples were disrupted by the addition of 100 μl lysis solution, and the [Ca^2+] concentrations calculated as previously described (Rosay P, Davies S A, Yu Y, Sozen A, Kaiser K, et al. Cell-type specific calcium signalling in a Drosophila epithelium. J Cell Sci. 1997; 110:1683-1692).
For the Capa1 and Capa2 peptides, the relevant native control peptide (D. melanogaster Capa1 or Capa2 respectively) was used as a control. Control agonist activity was normalised to 100% and activity of neuropeptide analogues is expressed relative to that.

[2] = test system: bumblebees (Bombus terrestris); assay: Bumblebee acute oral toxicity test; format: in vivo; details: for safety towards B. terrestris in the bumblebee oral toxicity assay: in vivo
Protocol: Oral toxicity against bumblebees (Bombus terrestris) was determined as previously described:
OECD (2017), Test No. 247: Bumblebee, Acute Oral Toxicity Test, OECD Guidelines for the Testing of Chemicals, Section 2, OECD Publishing, Paris, https://doi.org/10.1787/9789264284128-en.
Example data are provided for peptides, AH56, AH257, AH259 in Tables 4, 5 below. […]
Data were acquired for: feeding behaviour—weight of liquid consumed pre- and post-treatment; lethality (days).
There was no negative impact on feeding behaviour from capa peptides. Acute bumblebee toxicity was also assessed for other peptide candidates including: AH270, PEG270. Overall, capa peptides are bee safe.

[3] = molecular target: T2, Drosophila melanogaster capa GPCR, capaR (Drosophila melanogaster, UniProt Q8ITC7 1-477); assay: cell-based or functional assay
T2 sequence (looked up): T1 sequence (Q8ITC7 1-477)

[4] = molecular target: T2, Drosophila melanogaster capa GPCR, capaR; assay: cell-based or functional assay; remark: listed apart in the source
[5] = Table 11, individual bees, peptide 1 × 10 − 5M or Spirotetramat 25 uM

Molecule: CC(C)C[C@H](N=C(N(C)C)N(C)C)C(=O)N[C@H](C(=O)N[C@@H](C)C(=O)N[C@@H](Cc1ccccc1)C(=O)N1CCC[C@H]1C(=O)N[C@@H](CCCNC(=N)N)C(=O)N(C)[C@H](C(N)=O)C(C)C)C(C)C [AH257, Guanidyl-LVAFPR-(Me)V-NH2]
- CapaR Ca^2+ Agonist response [1]: 85%
- lethal effect on bumblebees ([2]; 1×10^−5 M in 50% sucrose, 0.1% ATPlus, oral): No lethal effect
- dead? ([2]; Table 10, individual bees, peptide ×10−5M or imidacloprid 28.3 uM in 50% sucrose, 0.1% ATPlus): 2
- safety towards B. terrestris in the bumblebee oral toxicity assay [2]: safe
- Est weight sucrose consumed post testing/day ([2]; individual bees, peptide ×10−5M or imidacloprid 28.3 uM in 50% sucrose, 0.1% ATPlus): 0.4789 grams/day and 0.0824 grams/day and 0.2612 grams/day and 0.3450 grams/day and 0.1265 grams/day and 0.4161 grams/day and 0.2912 grams/day and 0.3677 grams/day and 0.2298 grams/day and 0.3016 grams/day and 0.2869 grams/day
- Feeding impacted? (+ve feeding increased post pep, −ve feeding decreased post pep) ([2]; individual bees, post minus pre testing sucrose consumption): 0.0902 grams/day and −0.0881 grams/day and 0.0770 grams/day and 0.0006 grams/day and −0.0429 grams/day and −0.0008 grams/day and −0.0193 grams/day and 0.2039 grams/day and 0.0347 grams/day and 0.0995 grams/day and 0.0416 grams/day
- T-test outcome, sucrose consumed Pre vs Post ([2]; per treatment group): No sig effect

Molecule: CC(C)C[C@H](NC(=O)CCCCCN)C(=O)N[C@H](C(=O)N(C)[C@@H](C)C(=O)N[C@@H](Cc1ccccc1)C(=O)N1CCC[C@H]1C(=O)N[C@@H](CCCNC(=N)N)C(=O)N(C)[C@H](C(N)=O)C(C)C)C(C)C [AH270, H-Ahx-LV-(Me)A-FPR-(Me)V-NH2]
- CapaR Ca^2+ Agonist response [1]: 85%
- Liquid post exposure (weight), Mean ([2]; Table 11, group mean, n=10): 0.7794 g
- liquid consumed per day post exposure, Mean ([2]; Table 11, group mean, n=10): 0.1949 g
- Liquid post exposure (weight) [2, 5]: 0.9262 g and 0.7170 g and 1.8815 g and 0.8535 g and 0.6307 g and 0.4568 g and 0.3007 g and 0.5227 g and 1.1365 g and 0.3679 g
- days alive [2, 5]: 4 days
- liquid consumed per day post exposure [2, 5]: 0.2316 g and 0.1793 g and 0.4704 g and 0.2134 g and 0.1577 g and 0.1142 g and 0.0752 g and 0.1307 g and 0.2841 g and 0.0920 g
- safety towards B. terrestris in the bumblebee oral toxicity assay [2]: safe

B1: AH380 (H-LYAFAR-(Me)V-NH2) (peptide)
peptide: H-LYAFAR[NMeV]-NH2
SMILES: CC(C)C[C@H](N)C(=O)N[C@@H](Cc1ccc(O)cc1)C(=O)N[C@@H](C)C(=O)N[C@@H](Cc1ccccc1)C(=O)N[C@@H](C)C(=O)N[C@@H](CCCNC(=N)N)C(=O)N(C)[C@H](C(N)=O)C(C)C
- CapaR Ca^2+ Agonist response at 10^-7 M [3]: 14 % of native Capa1 activity

B2: AH387 (H-LY-Aib-FARV-NH2) (peptide)
peptide: H-LY[Aib]FARV-NH2
SMILES: CC(C)C[C@H](N)C(=O)N[C@@H](Cc1ccc(O)cc1)C(=O)NC(C)(C)C(=O)N[C@@H](Cc1ccccc1)C(=O)N[C@@H](C)C(=O)N[C@@H](CCCNC(=N)N)C(=O)N[C@H](C(N)=O)C(C)C
- CapaR Ca^2+ Agonist response at 10^-7 M [3]: 17 % of native Capa1 activity

B3: AH257 (Guanidyl-LVAFPR-(Me)V-NH2) (peptide)
peptide: Guanidyl-LVAFPR[NMeV]-NH2
SMILES: CC(C)C[C@H](NC(N(C)C)=[N+](C)C)C(=O)N[C@H](C(=O)N[C@@H](C)C(=O)N[C@@H](Cc1ccccc1)C(=O)N1CCC[C@H]1C(=O)N[C@@H](CCCNC(=N)N)C(=O)N(C)[C@H](C(N)=O)C(C)C)C(C)C
- CapaR Ca^2+ Agonist response at 10^-7 M [4]: 85 % of native Capa2 activity

B4: AH383 (H-(Me)L-YAFARV-NH2) (peptide)
peptide: H-[NMeL]YAFARV-NH2
SMILES: CN[C@@H](CC(C)C)C(=O)N[C@@H](Cc1ccc(O)cc1)C(=O)N[C@@H](C)C(=O)N[C@@H](Cc1ccccc1)C(=O)N[C@@H](C)C(=O)N[C@@H](CCCNC(=N)N)C(=O)N[C@H](C(N)=O)C(C)C
- CapaR Ca^2+ Agonist response at 10^-7 M [3]: 26 % of native Capa1 activity

B5: AH188 (H-LYAFARV-NH2) (peptide)
peptide: H-LYAFARV-NH2
- CapaR Ca^2+ Agonist response at 10^-7 M [3]: 64 % of native Capa1 activity

B6: AH382 (H-LY-(Me)A-FARV-NH2) (peptide)
peptide: H-LY[NMeA]FARV-NH2
SMILES: CC(C)C[C@H](N)C(=O)N[C@@H](Cc1ccc(O)cc1)C(=O)N(C)[C@@H](C)C(=O)N[C@@H](Cc1ccccc1)C(=O)N[C@@H](C)C(=O)N[C@@H](CCCNC(=N)N)C(=O)N[C@H](C(N)=O)C(C)C
- CapaR Ca^2+ Agonist response at 10^-7 M [3]: 36 % of native Capa1 activity

B7: AH259 (Guanidyl-L-(Me)V-AFPRV-NH2) (peptide)
peptide: Guanidyl-L[NMeV]AFPRV-NH2
SMILES: CC(C)C[C@H](NC(N(C)C)=[N+](C)C)C(=O)N(C)[C@H](C(=O)N[C@@H](C)C(=O)N[C@@H](Cc1ccccc1)C(=O)N1CCC[C@H]1C(=O)N[C@@H](CCCNC(=N)N)C(=O)N[C@H](C(N)=O)C(C)C)C(C)C
- CapaR Ca^2+ Agonist response at 10^-7 M [4]: 12 % of native Capa2 activity
